Activity calls are given as the source filed them.
Key:
Assay type in all cases: functional, organism-based
Bacillus subtilis [1] = test: Antimicrobial activity against Bacillus subtilis at 50 ug/disk after 24 hrs by disk diffusion method
Candida albicans [2] = test: Antimicrobial activity against Candida albicans at 50 ug/disk after 48 hrs by disk diffusion method
Escherichia coli [3] = test: Antimicrobial activity against Escherichia coli at 50 ug/disk after 24 hrs by disk diffusion method
Staphylococcus aureus [4] = test: Antimicrobial activity against Staphylococcus aureus at 50 ug/disk after 24 hrs by disk diffusion method
Staphylococcus aureus [5] = test: Antimicrobial activity against Staphylococcus aureus at 100 ug/disk after 24 hrs by disk diffusion method
Escherichia coli [6] = test: Antimicrobial activity against Escherichia coli at 100 ug/disk after 24 hrs by disk diffusion method
Candida albicans [7] = test: Antimicrobial activity against Candida albicans at 100 ug/disk after 48 hrs by disk diffusion method
Fusarium verticillioides = test: Antimicrobial activity against Fusarium verticillioides at 100 ug/disk after 48 hrs by disk diffusion method
Aspergillus flavus = test: Antimicrobial activity against Aspergillus flavus at 100 ug/disk after 48 hrs by disk diffusion method
Bacillus subtilis [8] = test: Antimicrobial activity against Bacillus subtilis at 100 ug/disk after 24 hrs by disk diffusion method

Measured: Activity

CC[C@@](C)(C(=O)CCO)C1=CC(=O)[C@H](C)[C@H](C)O1
inactive: Bacillus subtilis [1] | Candida albicans [2] | Escherichia coli [3] | Staphylococcus aureus [4]

CCC(C)C(=O)[C@@H]1CO[C@@H](C)[C@@H](C)[C@H]1CO (mixture of isomers)
inactive: Staphylococcus aureus [5] | Escherichia coli [6] | Candida albicans [7] | Fusarium verticillioides | Aspergillus flavus | Bacillus subtilis [8]

C[C@H]1[C@H]2[C@H](OC[C@@H]2C(=O)[C@@H](C)[C@@H](C)O)O[C@H]1C
inactive: Staphylococcus aureus [5] | Escherichia coli [6] | Candida albicans [7] | Fusarium verticillioides | Aspergillus flavus | Bacillus subtilis [8]

CC[C@@](C)(C(=O)CCO)C1=CC(=O)[C@@H](C)[C@H](C)O1
inactive: Bacillus subtilis [1] | Candida albicans [2] | Escherichia coli [3] | Staphylococcus aureus [4]

CC[C@H](C)C(=O)[C@H]1[C@H](CO)[C@H](C)[C@H](C)O[C@@H]1O
inactive: Staphylococcus aureus [5] | Escherichia coli [6] | Candida albicans [7] | Fusarium verticillioides | Aspergillus flavus | Bacillus subtilis [8]

C[C@H](C(=O)[C@H]1CO[C@@]2(C)OC[C@@H]1[C@@H]2C)[C@@H](C)O
inactive: Staphylococcus aureus [5] | Escherichia coli [6] | Candida albicans [7] | Fusarium verticillioides | Aspergillus flavus | Bacillus subtilis [8]
